Assay results as given in patent US6441195B1, “Substituted sulphonylamino(thio) carbonyl compounds” (Bayer Aktiengesellschaft, priority 1995, dated 2002).

How the values were obtained:
Format in all cases: in vivo
[1] = system: Poa; assay: Pre-emergence test/Greenhouse, Poa; settings: after three weeks
Protocol: (§1) To produce a suitable preparation of the active compound, 1 part by weight of active compound is mixed with the stated amount of solvent, the stated amount of emulsifier is added and the concentrate is diluted with water to the desired concentration.
(§2) Seeds of the test plants are sown in normal soil. After about 24 hours, the soil is watered with the preparation of active compound. Advantageously, the amount of water per unit area is kept constant. The active compound concentration in the preparation is not important, only the active compound appliation rate per unit area matters.
(§3) After three weeks, the degree of damage to the plants is rated in % damage in comparison to the development of the untreated control.
(§4) 0%=no action (like untreated control)

[2] = system: Solanum; assay: Pre-emergence test/Greenhouse, Solanum; settings: after three weeks
Protocol: as §1, §2, §3, §4

[3] = system: Lolium; assay: Pre-emergence test/Greenhouse, Lolium; settings: after three weeks
Protocol: as §1, §2, §3, §4

[4] = system: Ambrosia; assay: Pre-emergence test/Greenhouse, Ambrosia; settings: after three weeks
Protocol: as §1, §2, §3, §4

[5] = system: Matricaria; assay: Pre-emergence test/Greenhouse, Matricaria; settings: after three weeks
Protocol: as §1, §2, §3, §4

[6] = system: Maize; assay: Pre-emergence test/Greenhouse, Maize; settings: in vivo
Protocol: as §1, §2, §3, §4

[7] = system: weeds; assay: Pre-emergence test (greenhouse), activity against weeds; settings: in words
Protocol: Solvent: 5 parts by weight of acetone
Emulsifier: 1 part by weight of alkylaryl polyglycol ether
as §1, §2, §3, §4

[8] = system: Sorghum; assay: Pre-emergence test/Greenhouse, Sorghum; settings: after three weeks
Protocol: as §1, §2, §3, §4

CCOC(=O)c1scc(C)c1S(=O)(=O)NC(=O)n1nc(OC(C)C)n(C2CC2)c1=O [Example 70]
degree of damage to the plants (% damage vs untreated control), Poa ([1]; 60 g of ai./ha): 90%
degree of damage to the plants (% damage vs untreated control), Solanum ([2]; 60 g of ai./ha): 100%
degree of damage to the plants (% damage vs untreated control), Lolium ([3]; 60 g of ai./ha): 90%
degree of damage to the plants (% damage vs untreated control), Ambrosia ([4]; 60 g of ai./ha): 90%
degree of damage to the plants (% damage vs untreated control), Matricaria ([5]; 60 g of ai./ha): 100%
degree of damage to the plants (% damage vs untreated control), Maize [6]: 10%
activity against weeds [7]: very strong activity against weeds

COC(=O)c1scc(C)c1S(=O)(=O)NC(=O)n1nc(OC(C)C)n(C2CC2)c1=O [Example 53]
degree of damage to the plants (% damage vs untreated control), Poa ([1]; 125 g of ai./ha): 95%
degree of damage to the plants (% damage vs untreated control), Solanum ([2]; 125 g of ai./ha): 95%
degree of damage to the plants (% damage vs untreated control), Lolium ([3]; 125 g of ai./ha): 95%
degree of damage to the plants (% damage vs untreated control), Ambrosia ([4]; 125 g of ai./ha): 95%
degree of damage to the plants (% damage vs untreated control), Matricaria ([5]; 125 g of ai./ha): 95%
degree of damage to the plants (% damage vs untreated control), Maize [6]: 0%
activity against weeds [7]: very strong activity against weeds

COC(=O)c1cccc(C)c1S(=O)(=O)NC(=O)n1nc(SC)n(C2CC2)c1=O [Example 158]
activity against weeds [7]: very strong activity against weeds

COc1nn(C(=O)NS(=O)(=O)c2c(C)csc2C(=O)OC(C)C)c(=O)n1C [Example 82]
degree of damage to the plants (% damage vs untreated control), Solanum ([2]; 60 g of ai./ha): 100%
degree of damage to the plants (% damage vs untreated control), Lolium ([3]; 60 g of ai./ha): 60%
degree of damage to the plants (% damage vs untreated control), Sorghum ([8]; 60 g of ai./ha): 90%
degree of damage to the plants (% damage vs untreated control), Matricaria ([5]; 60 g of ai./ha): 100%
degree of damage to the plants (% damage vs untreated control), Maize [6]: 0%
activity against weeds [7]: very strong activity against weeds

CCc1nn(C(=O)NS(=O)(=O)c2c(C)csc2C(=O)OC(C)C)c(=O)n1C [Example 77]
degree of damage to the plants (% damage vs untreated control), Solanum ([2]; 60 g of ai./ha): 90%
degree of damage to the plants (% damage vs untreated control), Lolium ([3]; 60 g of ai./ha): 95%
degree of damage to the plants (% damage vs untreated control), Sorghum ([8]; 60 g of ai./ha): 90%
degree of damage to the plants (% damage vs untreated control), Matricaria ([5]; 60 g of ai./ha): 100%
degree of damage to the plants (% damage vs untreated control), Maize [6]: 0%
activity against weeds [7]: very strong activity against weeds

CCOc1nn(C(=O)NS(=O)(=O)c2c(C)csc2C(=O)OC(C)C)c(=O)n1C1CC1 [Example 85]
degree of damage to the plants (% damage vs untreated control), Solanum ([2]; 125 g of ai./ha): 100%
degree of damage to the plants (% damage vs untreated control), Lolium ([3]; 125 g of ai./ha): 95%
degree of damage to the plants (% damage vs untreated control), Sorghum ([8]; 125 g of ai./ha): 95%
degree of damage to the plants (% damage vs untreated control), Matricaria ([5]; 125 g of ai./ha): 100%
degree of damage to the plants (% damage vs untreated control), Maize [6]: 60%
activity against weeds [7]: very strong activity against weeds

COC(=O)c1cccc(C)c1S(=O)(=O)NC(=O)c1ncc(C)o1 [Example 121]
degree of damage to the plants (% damage vs untreated control), Solanum ([2]; 500 g of ai./ha): 95%
degree of damage to the plants (% damage vs untreated control), Lolium ([3]; 500 g of ai./ha): 70%
degree of damage to the plants (% damage vs untreated control), Sorghum ([8]; 500 g of ai./ha): 80%
degree of damage to the plants (% damage vs untreated control), Matricaria ([5]; 500 g of ai./ha): 90%
degree of damage to the plants (% damage vs untreated control), Maize [6]: 10%
activity against weeds [7]: very strong activity against weeds

CCOC(=O)c1scc(C)c1S(=O)(=O)NC(=O)n1nc(OCC(F)(F)F)n(C)c1=O [Example 62]
degree of damage to the plants (% damage vs untreated control), Poa ([1]; 125 g of ai./ha): 90%
degree of damage to the plants (% damage vs untreated control), Solanum ([2]; 125 g of ai./ha): 95%
degree of damage to the plants (% damage vs untreated control), Lolium ([3]; 125 g of ai./ha): 80%
degree of damage to the plants (% damage vs untreated control), Sorghum ([8]; 125 g of ai./ha): 60%
degree of damage to the plants (% damage vs untreated control), Matricaria ([5]; 125 g of ai./ha): 95%
degree of damage to the plants (% damage vs untreated control), Maize [6]: 0%
activity against weeds [7]: very strong activity against weeds

CCOC(=O)c1scc(C)c1S(=O)(=O)NC(=O)c1noc(C)n1 [Example 72]
degree of damage to the plants (% damage vs untreated control), Poa ([1]; 125 g of ai./ha): 70%
degree of damage to the plants (% damage vs untreated control), Solanum ([2]; 125 g of ai./ha): 100%
degree of damage to the plants (% damage vs untreated control), Lolium ([3]; 125 g of ai./ha): 90%
degree of damage to the plants (% damage vs untreated control), Ambrosia ([4]; 125 g of ai./ha): 95%
degree of damage to the plants (% damage vs untreated control), Matricaria ([5]; 125 g of ai./ha): 100%
degree of damage to the plants (% damage vs untreated control), Maize [6]: 10%
activity against weeds [7]: very strong activity against weeds

CCCOC(=O)c1scc(C)c1S(=O)(=O)NC(=O)n1nc(OCC)n(C2CC2)c1=O [Example 93]
degree of damage to the plants (% damage vs untreated control), Solanum ([2]; 60 g of ai./ha): 90%
degree of damage to the plants (% damage vs untreated control), Lolium ([3]; 60 g of ai./ha): 90%
degree of damage to the plants (% damage vs untreated control), Sorghum ([8]; 60 g of ai./ha): 80%
degree of damage to the plants (% damage vs untreated control), Matricaria ([5]; 60 g of ai./ha): 95%
degree of damage to the plants (% damage vs untreated control), Maize [6]: 0%
activity against weeds [7]: very strong activity against weeds

CCCOC(=O)c1scc(C)c1S(=O)(=O)NC(=O)n1nc(OC)n(C)c1=O [Example 89]
degree of damage to the plants (% damage vs untreated control), Solanum ([2]; 125 g of ai./ha): 100%
degree of damage to the plants (% damage vs untreated control), Lolium ([3]; 125 g of ai./ha): 100%
degree of damage to the plants (% damage vs untreated control), Sorghum ([8]; 125 g of ai./ha): 90%
degree of damage to the plants (% damage vs untreated control), Matricaria ([5]; 125 g of ai./ha): 100%
degree of damage to the plants (% damage vs untreated control), Maize [6]: 0%
activity against weeds [7]: very strong activity against weeds

CCOC(=O)c1scc(C)c1S(=O)(=O)NC(=O)n1nc(OC(C)C)n(C)c1=O [Example 59]
degree of damage to the plants (% damage vs untreated control), Poa ([1]; 125 g of ai./ha): 70%
degree of damage to the plants (% damage vs untreated control), Solanum ([2]; 125 g of ai./ha): 95%
degree of damage to the plants (% damage vs untreated control), Lolium ([3]; 125 g of ai./ha): 100%
degree of damage to the plants (% damage vs untreated control), Ambrosia ([4]; 125 g of ai./ha): 95%
degree of damage to the plants (% damage vs untreated control), Matricaria ([5]; 125 g of ai./ha): 100%
degree of damage to the plants (% damage vs untreated control), Maize [6]: 0%
activity against weeds [7]: very strong activity against weeds

CCCc1nn(C(=O)NS(=O)(=O)c2c(C)csc2C(=O)OCC)c(=O)n1C [Example 67]
degree of damage to the plants (% damage vs untreated control), Solanum ([2]; 60 g of ai./ha): 100%
degree of damage to the plants (% damage vs untreated control), Lolium ([3]; 60 g of ai./ha): 100%
degree of damage to the plants (% damage vs untreated control), Sorghum ([8]; 60 g of ai./ha): 90%
degree of damage to the plants (% damage vs untreated control), Matricaria ([5]; 60 g of ai./ha): 100%
degree of damage to the plants (% damage vs untreated control), Maize [6]: 0%
activity against weeds [7]: very strong activity against weeds

CCCOC(=O)c1scc(C)c1S(=O)(=O)NC(=O)n1nc(OCC)n(C)c1=O [Example 80]
degree of damage to the plants (% damage vs untreated control), Solanum ([2]; 125 g of ai./ha): 95%
degree of damage to the plants (% damage vs untreated control), Lolium ([3]; 125 g of ai./ha): 95%
degree of damage to the plants (% damage vs untreated control), Sorghum ([8]; 125 g of ai./ha): 90%
degree of damage to the plants (% damage vs untreated control), Matricaria ([5]; 125 g of ai./ha): 100%
degree of damage to the plants (% damage vs untreated control), Maize [6]: 0%
activity against weeds [7]: very strong activity against weeds

CCCOc1nn(C(=O)NS(=O)(=O)c2c(C)csc2C(=O)OCC)c(=O)n1C [Example 58]
degree of damage to the plants (% damage vs untreated control), Poa ([1]; 125 g of ai./ha): 95%
degree of damage to the plants (% damage vs untreated control), Solanum ([2]; 125 g of ai./ha): 95%
degree of damage to the plants (% damage vs untreated control), Lolium ([3]; 125 g of ai./ha): 80%
degree of damage to the plants (% damage vs untreated control), Matricaria ([5]; 125 g of ai./ha): 100%
degree of damage to the plants (% damage vs untreated control), Maize [6]: 20%
activity against weeds [7]: very strong activity against weeds

CCCc1nn(C(=O)NS(=O)(=O)c2c(C)csc2C(=O)OC(C)C)c(=O)n1C [Example 108]
degree of damage to the plants (% damage vs untreated control), Solanum ([2]; 125 g of ai./ha): 90%
degree of damage to the plants (% damage vs untreated control), Lolium ([3]; 125 g of ai./ha): 90%
degree of damage to the plants (% damage vs untreated control), Sorghum ([8]; 125 g of ai./ha): 95%
degree of damage to the plants (% damage vs untreated control), Matricaria ([5]; 125 g of ai./ha): 95%
degree of damage to the plants (% damage vs untreated control), Maize [6]: 5%
activity against weeds [7]: very strong activity against weeds

CCOC(=O)c1scc(C)c1S(=O)(=O)NC(=O)n1nc(CC)n(C)c1=O [Example 66]
degree of damage to the plants (% damage vs untreated control), Solanum ([2]; 125 g of ai./ha): 100%
degree of damage to the plants (% damage vs untreated control), Lolium ([3]; 125 g of ai./ha): 100%
degree of damage to the plants (% damage vs untreated control), Sorghum ([8]; 125 g of ai./ha): 100%
degree of damage to the plants (% damage vs untreated control), Matricaria ([5]; 125 g of ai./ha): 100%
degree of damage to the plants (% damage vs untreated control), Maize [6]: 0%
activity against weeds [7]: very strong activity against weeds

CCSc1nn(C(=O)NS(=O)(=O)c2c(C)csc2C(=O)OC(C)C)c(=O)n1C [Example 81]
degree of damage to the plants (% damage vs untreated control), Solanum ([2]; 60 g of ai./ha): 100%
degree of damage to the plants (% damage vs untreated control), Lolium ([3]; 60 g of ai./ha): 100%
degree of damage to the plants (% damage vs untreated control), Sorghum ([8]; 60 g of ai./ha): 95%
degree of damage to the plants (% damage vs untreated control), Matricaria ([5]; 60 g of ai./ha): 100%
activity against weeds [7]: very strong activity against weeds
